{"source": "patent US4948892A", "about": "“Sulfonamid compound useful for treating cardiovascular disorders” (Kowa Comp., Ltd., priority 1988, dated 1990)", "test_system": "ADP-induced platelet aggregation (rabbit PRP)", "assay": "Inhibitory effect on ADP-induced platelet aggregation in PRP", "assay_type": "cell-based", "settings": "ADP (2 μM), preincubated 37° C. for 1 minute, inhibition rate (%) at this concentration in parentheses", "description": "Rabbit PRP (250 μl) was preincubated with drug samples (10 μl of aqueous solution or 1 μl of DMSO solution) at 37° C. for 1 minute, and ADP (2 μM)-induced platelet aggregation was measured by aggregometer (NKK HEMA TRACERl Model PAT-4M). Inhibitory effects of the drugs were estimated from the standard curve of maximal aggregation.", "data": [{"smiles": "O=S(=O)(NCCCN1CCN(C(c2ccccc2)c2ccccc2)CC1)c1ccc(Cl)cc1", "note": "[Example 9]", "values": [{"measurement": "Platelet aggregation inhibitory concentration", "result": "10^-4 mole/liter"}]}]}
